The source of these data is patent US7157495B2, “Hexahydrofuro[2,3-B]furan-3-YL-N-{3-[(1,3-benzodioxol-5-ylsulfonyl)(isobutyl)amino]-1-benzyl-2-hydroxypropyl}carbamate as retroviral protease inhibitor” (Tibotec Pharmaceuticals, Ltd., priority 1999, dated 2007).

As usually defined, the IC50 is the concentration that inhibits the measured activity by half.

Holding throughout (type): cell-based
One test concerns HIV-1 strain LAI. Nature of the test: Cellular anti-HIV assay in MT4 cells (MTT). As to the method: (§1) HIV- or mock-infected MT4 cells were incubated for five days in the presence of various concentrations of the inhibitor. At the end of the incubation period, all HIV-infected cells have been killed by the replicating virus in the control cultures in the absence of any inhibitor. Cell viability is measured by measuring the concentration of MTT, a yellow, water soluble tetrazolium dye that is converted to a purple, water insoluble formazan in the mitochondria of living cells only. Upon solubilization of the resulting formazan crystals with isopropanol, the absorbance of the solution is monitored at 540 nm. The values correlate directly to the number of living cells remaining in the culture at the completion of the five day incubation. The inhibitory activity of the compound was monitored on the virus-infected cells and was expressed as IC50 and IC90. These values represent the amount of the compound required to protect 50% and 90%, respectively, of the cells from the cytopathogenic effect of the virus. The toxicity of the compound was measured on the mock-infected cells and was expressed as CC50, which represents the concentration of compound required to inhibit the growth of the cells by 50%. The select index (SI) (ratio CC50/IC50) is an indication of the selectivity of the anti-HIV activity of the inhibitor.

The test system of another test is HIV strain r13020. Nature of the test: Antiviral spectrum, protease inhibitor resistant strain. The following applies: Human immunodeficiency virus 1, strain r13020; L10I, K20R, M36I, 154V, A71V, V82T, 184V. As for the experimental part:
as §1
(§2) Because of the increasing emergence of drug resistant HIV strains, compound 13 and compound 14 were tested for its potency against HIV strains harbouring several mutations. These mutations are associated with resistance to protease inhibitors and result in viruses that show various degrees of phenotypic cross-resistance to five of the currently commercially available drugs (Saquinavir, Ritonavir, Nelfinavir, Indinavir and Amprenavir).

A further test deals with HIV strain r13021. The test is described as above. The following applies: L10I, K20R, L24I, M36I, I54V, L63P, A71V, V82T, I84V. As to the method:
as §1, §2

The test system of the next test is HIV strain r13022. The description is as above. The following applies: Human immunodeficiency virus 1, strain r13022; K20R, M36I, M46I/M, 154V, L63P, A71V/I, V82T, L90M. As for the experimental part: as §1, §2
The next test has as its system HIV strain r13023. The test is described as above. The following applies: L10I, M36I/M, I54V/I, L63P, A71V, G73S, I84V, L90M. As for the experimental part:
as §1, §2

In a further test the test system is HIV strain r13024. The description is as above. The following applies: Human immunodeficiency virus 1, strain r13024; L10I, M36I, L63P, A71V, G73S, I84V, L90M. As for the experimental part: as §1, §2
For a further test, the system named is HIV strain r13025. The test is described as above. The following applies: Human immunodeficiency virus 1, strain r13025; L10I, M46I, L63P, A71V, I84V. As to the method: as §1, §2
In the next test the test system is HIV strain r13026. Described as above. The following applies: Human immunodeficiency virus 1, strain r13026; L10I, M46I, I54V, L63P, A71V, V82T, I84V. As for the experimental part:
as §1, §2

Another test concerns HIV strain r13027. The test is described as above. The following applies: Human immunodeficiency virus 1, strain r13027; L10M/I, K20R, M36I, L63P, A71V, G73S, V77I, I84V, L90M. As for the experimental part:
as §1, §2

The next test has as its system HIV strain r13029. Described as above. The following applies: Human immunodeficiency virus 1, strain r13029; L10I/L, M36I, M46L, L63P, A71V, I84V, N88D, L90M. As for the experimental part: as §1, §2
The subject of another test is HIV strain r13030. The description is as above. The following applies: Human immunodeficiency virus 1, strain r13030; L10V/I, M36I, I54V, L63P, A71V, V82T, L90M. As to the method:
as §1, §2

The subject of the next test is HIV strain r13031. Described as above. The following applies: Human immunodeficiency virus 1, strain r13031; G48V, I54V, V77I, V82A, L90M/L. As to the method: as §1, §2
Another test concerns HIV strain r13033. The test is described as above. The following applies: Human immunodeficiency virus 1, strain r13033; L10I, M46L, I54V, L63P, A71V, V82A, L90M. As for the experimental part:
as §1, §2

The next test deals with HIV strain r13034. The description is as above. The following applies: Human immunodeficiency virus 1, strain r13034; L10I, M36I, I54V, L63P, A71V, I84V. As for the experimental part: as §1, §2
In another test the test system is HIV strain r13035. Described as above. The following applies: Human immunodeficiency virus 1, strain r13035; D30N, L63P, V77I, N88D. As for the experimental part:
as §1, §2

A further test has as its system HIV strain r13036. The description is as above. The following applies: Human immunodeficiency virus 1, strain r13036; L10I, L63P, A71V, G73S, L90M. As to the method:
as §1, §2

The test system of a further test is HIV strain r13037. Described as above. The following applies: Human immunodeficiency virus 1, strain r13037; L10I, M46I, I54V, L63P, A71T, V77I, V82A, L90M. As to the method:
as §1, §2

Where [1] appears, read: Human immunodeficiency virus 1, MT4, strain LAI, read-out: IC50.
Setting [2] is: Human immunodeficiency virus 1, strain r13021.
Setting [3] is: Human immunodeficiency virus 1, strain r13023.

Molecules are shown by their SMILES. Like-named read-outs stand apart in the source and are kept apart here. Some results are limits rather than exact numbers.

Regarding `CC(C)CN(C[C@@H](O)[C@H](Cc1ccccc1)NC(=O)O[C@H]1CCOC1)S(=O)(=O)c1ccc(N)cc1` [AMP, Amprenavir], the IC50 turned out to be 35.9 nM in the test with HIV-1 strain LAI (setting [1]); 107 nM in the test on HIV strain r13020; 212 nM with HIV strain r13021 (setting [2]); 181 nM in the test with HIV strain r13022; 217 nM with HIV strain r13023 (setting [3]); 180 nM in the test on HIV strain r13024. The IC50 with HIV strain r13025 turned out to be 661 nM; in the test with HIV strain r13026, 136 nM; in the test on HIV strain r13027, 645 nM; in the test on HIV strain r13029, 214 nM; with HIV strain r13030, 49.1 nM; in the test on HIV strain r13031, 34.1 nM. Further, the 50% inhibitory concentration (IC50) came out at 194 nM in the test with HIV strain r13033; 677 nM in the test on HIV strain r13034; 10.5 nM in the test with HIV strain r13035; 445 nM with HIV strain r13036; 165 nM with HIV strain r13037.

Take `CC(C)CN(CC(O)C(Cc1ccccc1)NC(=O)OC1COC2OCCC12)S(=O)(=O)c1ccc2c(c1)OCO2` (stereo not drawn) [Compound 14]: the half-maximal inhibitory concentration (IC50) in the test on HIV-1 strain LAI (setting [1]) amounted to 0.8 nM; in the test with HIV strain r13020 it was 0.8 nM; in the test on HIV strain r13021 (strain r13021) it was 1.5 nM; with HIV strain r13022, 1.1 nM; with HIV strain r13023 (strain r13023), 2.8 nM; in the test with HIV strain r13024 it was 5.5 nM. Further, the IC50 with HIV strain r13025 came to 32.8 nM; in the test on HIV strain r13026, 0.8 nM; in the test on HIV strain r13027 it was 7.3 nM; with HIV strain r13029, 5.2 nM; in the test with HIV strain r13030 it was 0.2 nM; in the test on HIV strain r13031, 0.3 nM. Moreover, the half-inhibitory concentration (IC50) in the test with HIV strain r13033 worked out at 1.1 nM; in the test with HIV strain r13034, 5.5 nM; in the test on HIV strain r13035 it was 0.2 nM; with HIV strain r13036, 2.9 nM; in the test with HIV strain r13037 it was 0.5 nM.

Take `CC(C)(C)NC(=O)[C@@H]1CN(Cc2cccnc2)CCN1C[C@@H](O)C[C@@H](Cc1ccccc1)C(=O)N[C@H]1c2ccccc2C[C@H]1O` [IND, Indinavir]: the half-maximal inhibitory concentration (IC50) worked out at 27.6 nM in the test with HIV-1 strain LAI (setting [1]); 1380 nM in the test on HIV strain r13020; 1750 nM in the test on HIV strain r13021 (setting [2]); 1700 nM with HIV strain r13022; 680 nM in the test on HIV strain r13023 (setting [3]); 1070 nM in the test with HIV strain r13024. Moreover, the half-maximal inhibitory concentration (IC50) in the test with HIV strain r13025 stood at 1250 nM; in the test on HIV strain r13026, 2720 nM; in the test with HIV strain r13027, 714 nM; in the test on HIV strain r13029 it was 922 nM; with HIV strain r13030, 574 nM; in the test with HIV strain r13031, 154 nM. Further, the 50% inhibitory concentration (IC50) in the test with HIV strain r13033 was 848 nM; with HIV strain r13034, 638 nM; in the test with HIV strain r13035 it was 7.4 nM; in the test on HIV strain r13036 it was 638 nM; in the test on HIV strain r13037 it was 196 nM.

`Cc1c(O)cccc1C(=O)N[C@@H](CSc1ccccc1)[C@H](O)CN1C[C@H]2CCCC[C@H]2C[C@H]1C(=O)NC(C)(C)C` [NEL, Nelfinavir]: the IC50 was found to be 33.1 nM in the test on HIV-1 strain LAI (setting [1]); 3750 nM in the test on HIV strain r13020; 4100 nM in the test on HIV strain r13021 (setting [2]); 4030 nM in the test on HIV strain r13022; 1020 nM in the test on HIV strain r13023 (setting [3]); 3260 nM with HIV strain r13024. Also, the IC50 with HIV strain r13025 amounted to 9130 nM; with HIV strain r13026, 1220 nM; with HIV strain r13027 it was 3200 nM; with HIV strain r13029, 3790 nM; in the test with HIV strain r13030, 995 nM; with HIV strain r13031, 497 nM. Further, the half-inhibitory concentration (IC50) in the test on HIV strain r13033 is 1190 nM; in the test on HIV strain r13034, 1990 nM; with HIV strain r13035, 361 nM; with HIV strain r13036, 3250 nM; in the test with HIV strain r13037, 656 nM.

Turning to `CC(C)c1nc(CN(C)C(=O)N[C@H](C(=O)N[C@@H](Cc2ccccc2)C[C@H](O)[C@H](Cc2ccccc2)NC(=O)OCc2cncs2)C(C)C)cs1` [RIT, Ritonavir], the 50% inhibitory concentration (IC50) in the test on HIV-1 strain LAI (setting [1]) was 30.4 nM; in the test with HIV strain r13020 it was 9280 nM; in the test with HIV strain r13021 (setting [2]) it was > 10000 nM; with HIV strain r13022, > 10000 nM; in the test on HIV strain r13023 (setting [3]) it was 3820 nM; in the test on HIV strain r13024 it was 2850 nM. The IC50 in the test on HIV strain r13025 was 2240 nM; in the test on HIV strain r13026, > 10000 nM; in the test on HIV strain r13027, 3140 nM; in the test on HIV strain r13029, 3600 nM; in the test with HIV strain r13030 it was 2990 nM; in the test on HIV strain r13031 it was 856 nM. In addition, the IC50 is 3470 nM in the test with HIV strain r13033; > 10000 nM in the test on HIV strain r13034; 31.1 nM in the test on HIV strain r13035; 2830 nM in the test on HIV strain r13036; 2720 nM in the test with HIV strain r13037.

For the molecule `CC(C)(C)NC(=O)[C@@H]1C[C@@H]2CCCC[C@@H]2CN1C[C@@H](O)[C@H](Cc1ccccc1)NC(=O)[C@H](CC(N)=O)NC(=O)c1ccc2ccccc2n1` [SAQ, Saquinavir], the IC50 in the test on HIV-1 strain LAI (Human immunodeficiency virus 1, MT4) turned out to be 7.9 nM; in the test with HIV strain r13020 it was 3510 nM; with HIV strain r13021 (setting [2]), 1450 nM; in the test with HIV strain r13022 it was 665 nM; in the test on HIV strain r13023 (setting [3]) it was 783 nM; in the test on HIV strain r13024, 2090 nM. Also, the IC50 in the test on HIV strain r13025 amounted to 157 nM; in the test on HIV strain r13026, 1990 nM; with HIV strain r13027 it was 2920 nM; with HIV strain r13029, 2610 nM; in the test with HIV strain r13030, 173 nM; with HIV strain r13031, 673 nM. The IC50 with HIV strain r13033 was 52.1 nM; in the test on HIV strain r13034, 1010 nM; with HIV strain r13035, 5.3 nM; with HIV strain r13036 it was 514 nM; with HIV strain r13037, 27.4 nM.
